Values quoted from earlier work, collected in US11318093B2, “Dental topical anesthetic gel” (Pac-Dent, Inc., priority 2019, dated 2022).

Key:
[1] = in vivo
[2] = system: MCP-2 chemokine and other proinflammatory cytokines; details: Petrosino et al. 2018; in vitro ACD model; inhibition of MCP-2 chemokine and proinflammatory cytokine production
[3] = system: methicillin-resistant Staphylococcus aureus strains (MRSA); details: European research; strains resistant to several classes of drugs
[4] = Evans 1991
[5] = system: cyclooxygenase (COX)

CCCCCc1cc(O)c2c(c1)OC(C)(CCC=C(C)C)C=C2 (stereo not drawn) [CBC, cannabichromene]
pain and inflammation associated with collagen-induced osteoarthritis [1]: block pain and inflammation | anti-inflammatory properties [2]: some anti-inflammatory benefits

C=C(C)[C@@H]1CCC(C)=C[C@H]1c1c(O)cc(CCCCC)cc1O [CBD, cannabidiol]
anti-inflammatory properties [2]: potent anti-inflammatory properties

C=C(C)[C@@H]1CCC(C)=C[C@H]1c1c(O)cc(CCC)cc1O [CBDV, cannabidivarin]
anti-inflammatory properties [2]: some anti-inflammatory benefits

CCCCCc1cc(O)c(C/C=C(\C)CCC=C(C)C)c(O)c1 [CBG, cannabigerol]
anti-inflammatory properties [2]: some anti-inflammatory benefits | antibacterial agent against MRSA [3]: effective antibacterial agent

CCCCCc1cc(O)c2c(c1)OC(C)(C)[C@@H]1CCC(C)=C[C@@H]21 [THC, tetrahydrocannabinol]
anti-inflammatory potency relative to aspirin [4]: twenty times that of aspirin | anti-inflammatory potency relative to hydrocortisone [4]: twice that of hydrocortisone | cyclooxygenase (COX) inhibition [5]: without any cyclooxygenase (COX) inhibition
